In brackets after ≈: the same amount, converted by molar mass. Where two headings read alike, the source gives them in different places.
Experiments:
human Pol II = molecular target: T1, human Pol II (Homo sapiens, UniProt P24928+P30876); assay: RNA polymerase II counterscreen, human pol II; format: biochemical
T1 construct: Pol II was isolated from Aspergillus nidulans, Saccharomyces cerevisiae, and human cells; endogenous in cells; enzyme isolated from them
Method: Pol II was isolated from Aspergillus nidulans, Saccharomyces cerevisiae, and human cells (FIG. 5) and used in secondary screens for fungal spectrum and specificity. Pol I and Pol III were isolated from Candida albicans and used as an additional mechanism to study specificity. Confirmed hits form the primary assay and were evaluated against this panel of polymerases. Agents with activity against Pol II from multiple fungal enzymes but not against the human counterpart were evaluated in vitro against fungal pathogens.

[1] = molecular target: T2, C. albicans RNA polymerase II (Candida albicans, UniProt A0A1D8PUA6+Q5A8Y5); assay: biochemical; settings: for IC50: read-out: IC50 Candida pol II; for inhibition at 20 µM: screening of azo library
T2 construct: RNA elongation assay on calf thymus DNA
Method: (§1) The following procedure is used for cell-free high-throughput screening. A Tomtec Quadra 96-well pipetting station is used to add the reaction components to polypropylene 96-well dishes. 5 μl aliquots of test compounds dissolved in DMSO (or DMSO alone as a control) are added to wells. This is followed by 20 μl of the RNA polymerase II mixture, which consists of: 10 mM DTT, 200 mM KCl, 10 mM Mn^+2, 1.5 μM bovine serum albumin, and 0.25 μg reconstituted RNA polymerase. After allowing the test compound to interact with the RNA polymerase, 25 μl of the DNA/NTP mixture is added, containing: 1 μg calf thymus DNA, 4 μM [α-^32 P]-UTP, and 400 μM each CTP, ATP, and GTP.
(§2) After incubation for 60 min at 30 C, the reaction is stopped by addition of 50 μl 15% trichloroacetic acid (TCA). The TCA-precipitated RNA is adsorbed onto double-thick glass fiber filtermats using a Tomtec cell harvester. The wells of the microtiter plate and the filter are washed twice with 5% TCA and bound radioactivity is determined using a Wallac microbeta 1450 scintillation counter.
(§3) Inhibitory activity due to the test compound is calculated according to the formula: [formula] where cpmpositive control represents the average of the cpm in wells that received DMSO alone, and cpmsample represents the cpm in the well that received test compound. Compounds that cause at least 50% inhibition are scored as positive "hits" in this assay.
(§4) DNA-directed RNA polymerase II from Candida albicans was purified in sufficient quantity to support high throughput screening of large synthetic chemical and natural product libraries. A biochemical mechanism-based screen for detecting inhibitors of Pol II was developed and implemented. The screen is outlined in FIGS. 4A and 4B.

[2] = system: systemic Candida infection; assay: Murine model for systemic candidiasis; format: in vivo, mouse
Method: (§5) In addition, Compound 1 was efficacious in a murine model for systemic candidiasis (FIG. 10). It prolonged mean and median survival times of treated mice in the dosage range of 5 mg/kg/d to 100 mg/kg/d on aq.d., d2-11 schedule. […] The efficacy of Compound 1 was confirmed in a separate experiment using amphotericin as a control (FIG. 11). Compound 1 was also efficacious when administered orally to mice with an established systemic Candida infection (FIG. 12). […] Compound 1 is also effective against systemic candidiasis caused by a strain of C. albicans resistant to fluconazole (FIG. 13). Additional animal testing will include acute toxicity determination, route and schedule dependency in standard efficacy models, efficacy testing in immunosuppressed Candida infected mice, efficacy in an Aspergillus infection model, and pharmacokinetics following IV and oral dosing.
(§6) Compound 6 was evaluated for antifungal efficacy in a systemic candidiasis model in immunocompetent mice (FIG. 18). The compound was administered IP on a q.d., d2-11 schedule. […] 90% long term survival was seen formice treated with Compound 6 at 200/mg/kg. 30% of mice survived when treated with Compound 6 at 100 mg/kg/d. Compound 6 was also effective against systemic candidiasis when administered orally (FIG. 19) and it was effective in treating infections caused by fluconazole-resistant C. albicans.

[3] = Compound-related toxicity in treated mice; format: in vivo, mouse; settings: IP, q.d., d2-11, any of the treatment groups, immunocompetent mice
Method: as §5, §6

fungal pathogens = assay: In vitro antifungal activity (MIC); format: cell-based
[4] = system: C. albicans resistant to fluconazole; assay: Systemic candidiasis caused by fluconazole-resistant C. albicans; settings: mouse, in vivo
Method: as §5, §6

[5] = system: C. albicans RNA polymerase II; assay: biochemical
Method: as §1, §2, §3, §4

C. albicans = assay: Time course of fungicidal activity, C. albicans; format: cell-based, Candida albicans; settings: C. albicans cells
Excerpt: (§7) Compound 1 is rapidly fungicidal.

S. cerevisiae = assay: Time course of fungicidal activity, S. cerevisiae; format: cell-based, Saccharomyces cerevisiae; settings: S. cerevisiae cells
Excerpt: as §7

[6] = Table 2, read-out: IC50 Human pol II
[7] = Table 1, read-out: IC50 Human pol II
[8] = listed as stilbene isostere of Compound 1
[9] = 1.5 μg/ml, similar time (45 minutes)

T2 sequence (A0A1D8PUA6 1-1728): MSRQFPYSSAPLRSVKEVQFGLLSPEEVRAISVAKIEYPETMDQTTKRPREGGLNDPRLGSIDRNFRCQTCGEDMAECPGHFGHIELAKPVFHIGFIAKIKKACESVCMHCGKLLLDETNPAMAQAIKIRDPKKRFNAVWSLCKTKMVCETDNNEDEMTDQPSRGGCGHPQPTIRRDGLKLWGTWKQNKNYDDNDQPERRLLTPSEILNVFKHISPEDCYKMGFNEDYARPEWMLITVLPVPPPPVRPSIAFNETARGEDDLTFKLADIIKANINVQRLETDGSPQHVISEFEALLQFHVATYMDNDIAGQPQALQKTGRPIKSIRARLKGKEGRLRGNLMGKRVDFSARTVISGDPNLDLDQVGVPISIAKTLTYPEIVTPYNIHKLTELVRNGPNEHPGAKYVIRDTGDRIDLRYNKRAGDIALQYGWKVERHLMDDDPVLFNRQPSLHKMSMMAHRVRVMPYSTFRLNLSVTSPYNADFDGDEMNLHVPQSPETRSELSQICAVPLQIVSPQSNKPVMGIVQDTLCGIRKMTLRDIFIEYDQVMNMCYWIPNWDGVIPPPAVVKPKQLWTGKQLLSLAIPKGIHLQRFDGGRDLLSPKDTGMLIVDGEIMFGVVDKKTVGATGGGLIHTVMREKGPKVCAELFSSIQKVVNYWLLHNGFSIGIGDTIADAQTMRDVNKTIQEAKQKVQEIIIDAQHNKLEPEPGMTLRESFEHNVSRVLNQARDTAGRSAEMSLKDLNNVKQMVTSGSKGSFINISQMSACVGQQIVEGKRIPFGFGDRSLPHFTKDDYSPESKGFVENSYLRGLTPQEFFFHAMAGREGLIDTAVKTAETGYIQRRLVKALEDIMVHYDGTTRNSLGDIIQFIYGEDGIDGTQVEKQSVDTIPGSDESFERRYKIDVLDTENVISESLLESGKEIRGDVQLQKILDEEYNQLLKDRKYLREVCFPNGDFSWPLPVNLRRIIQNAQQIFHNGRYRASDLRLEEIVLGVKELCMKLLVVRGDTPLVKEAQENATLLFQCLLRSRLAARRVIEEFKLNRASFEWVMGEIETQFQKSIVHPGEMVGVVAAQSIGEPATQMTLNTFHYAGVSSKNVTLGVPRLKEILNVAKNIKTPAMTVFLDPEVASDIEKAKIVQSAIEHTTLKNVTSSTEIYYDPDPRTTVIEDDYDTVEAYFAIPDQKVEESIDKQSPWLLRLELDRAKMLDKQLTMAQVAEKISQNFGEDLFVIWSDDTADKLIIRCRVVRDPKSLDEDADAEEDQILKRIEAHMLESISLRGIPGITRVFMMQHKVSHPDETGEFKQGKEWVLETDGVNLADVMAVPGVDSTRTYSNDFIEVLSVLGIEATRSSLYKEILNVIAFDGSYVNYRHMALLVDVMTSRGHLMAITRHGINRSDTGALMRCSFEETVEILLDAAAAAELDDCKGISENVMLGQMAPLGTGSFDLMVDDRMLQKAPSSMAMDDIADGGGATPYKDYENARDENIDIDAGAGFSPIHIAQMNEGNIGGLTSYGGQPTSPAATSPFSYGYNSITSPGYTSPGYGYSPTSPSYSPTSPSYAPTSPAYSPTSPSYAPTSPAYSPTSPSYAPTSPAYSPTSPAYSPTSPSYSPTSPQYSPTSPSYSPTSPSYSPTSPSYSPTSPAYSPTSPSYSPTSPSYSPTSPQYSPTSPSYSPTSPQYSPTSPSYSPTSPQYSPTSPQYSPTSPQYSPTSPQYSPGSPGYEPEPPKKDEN
T2 sequence (Q5A8Y5 1-1234): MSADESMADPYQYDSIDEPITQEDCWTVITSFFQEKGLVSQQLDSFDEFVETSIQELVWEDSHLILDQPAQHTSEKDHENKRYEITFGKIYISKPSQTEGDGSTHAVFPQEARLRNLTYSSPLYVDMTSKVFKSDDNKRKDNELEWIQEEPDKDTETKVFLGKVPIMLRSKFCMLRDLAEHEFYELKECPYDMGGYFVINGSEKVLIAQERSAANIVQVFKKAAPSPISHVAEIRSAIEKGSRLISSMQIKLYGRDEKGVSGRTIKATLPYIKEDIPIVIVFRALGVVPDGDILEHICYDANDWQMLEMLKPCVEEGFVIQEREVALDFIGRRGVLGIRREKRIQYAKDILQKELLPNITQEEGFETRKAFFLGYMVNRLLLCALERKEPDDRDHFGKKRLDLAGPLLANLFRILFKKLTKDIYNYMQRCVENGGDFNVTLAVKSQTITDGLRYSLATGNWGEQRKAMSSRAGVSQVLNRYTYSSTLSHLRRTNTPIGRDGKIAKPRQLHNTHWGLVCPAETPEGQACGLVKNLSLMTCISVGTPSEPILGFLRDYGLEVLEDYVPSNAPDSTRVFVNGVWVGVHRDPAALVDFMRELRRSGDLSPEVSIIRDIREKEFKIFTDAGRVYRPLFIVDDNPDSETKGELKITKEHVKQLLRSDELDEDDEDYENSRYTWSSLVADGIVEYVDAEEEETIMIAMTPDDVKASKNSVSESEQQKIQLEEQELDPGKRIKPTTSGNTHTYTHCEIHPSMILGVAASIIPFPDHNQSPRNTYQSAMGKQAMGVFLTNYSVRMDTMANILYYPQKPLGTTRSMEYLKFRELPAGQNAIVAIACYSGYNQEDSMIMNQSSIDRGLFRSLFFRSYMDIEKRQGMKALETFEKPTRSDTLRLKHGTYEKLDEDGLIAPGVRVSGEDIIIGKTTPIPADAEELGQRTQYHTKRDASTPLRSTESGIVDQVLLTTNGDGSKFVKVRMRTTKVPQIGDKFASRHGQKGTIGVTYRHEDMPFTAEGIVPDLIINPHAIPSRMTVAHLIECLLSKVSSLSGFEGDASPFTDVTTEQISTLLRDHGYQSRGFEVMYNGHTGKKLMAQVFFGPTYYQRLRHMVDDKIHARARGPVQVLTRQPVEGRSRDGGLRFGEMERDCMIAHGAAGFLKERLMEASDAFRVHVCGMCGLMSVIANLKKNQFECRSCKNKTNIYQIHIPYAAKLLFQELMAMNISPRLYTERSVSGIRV

Row | inhibition at 20 µM [1] [%] | Molecule | IC50 (human Pol II; [6]) [µM] | IC50 ([1]; Table 2) [µM] | further results
1 |  | 4-[-2-[3-(trifluoromethyl)phenyl]diazenyl]-2-hydroxy-phenol [Compound 4] | 230 | 70 | 
2 |  | Oc1ccc(CCc2cccc(C(F)(F)F)c2)cc1 [CH2 CH2] |  |  | IC50 (human Pol II; [7]): > 2000 µM; IC50 ([1]; Table 1): 230 µM
3 |  | O=C(Nc1ccc(O)cc1)c1cccc(C(F)(F)F)c1 [CONH] |  |  | IC50 (human Pol II; [7]): 500 µM; IC50 ([1]; Table 1): 51 µM
4 |  | COc1ccc(N=Nc2cccc(C(F)(F)F)c2)cc1 [Compound 3, 4-[-2-[3-(trifluoromethyl)phenyl]diazenyl]-anisole] | > 2000 | > 2000 | 
5 |  | Cc1cccc(N=Nc2ccc(O)cc2)c1 [Compound 5, 4-[-2-[3-(methyl)phenyl]diazenyl]-phenol] | 340 | 90 | 
6 |  | Oc1ccc(C=Cc2cccc(C(F)(F)F)c2)cc1 [Compound 6, 4-[-2-[3-(trifluoromethyl)phenyl]ethenyl]phenol] |  |  | IC50 (human Pol II): 230 µM; mice survived ([2]; IP q.d. d2-11, 100 mg/kg/d, immunocompetent mice): 30%; long term survival ([2]; IP q.d. d2-11, 200/mg/kg, immunocompetent mice): 90%; efficacy against systemic candidiasis when administered orally ([2]; oral): effective; compound-related toxicity [3]: no evidence of compound-related toxicity; in vitro antifungal activity / spectrum (fungal pathogens): broadly active against fungi; MIC (fungal pathogens; Table 1, antifungal activity, read-out: MIC): 8.2 µg/mL (≈ 31 µM); in vitro antifungal activity / spectrum (fungal pathogens; [8]): had antifungal activity; efficacy against systemic candidiasis caused by fluconazole-resistant C. albicans [4]: effective; IC50 ([1]; Table 1): 70 µM; selectivity for Candida/fungal Pol II relative to human Pol II [5]: selective; selectivity for Candida/fungal Pol II relative to human Pol II [5, 8]: retained selective activity
7 |  | O=[N+]([O-])c1cc(C(F)(F)F)ccc1N=Nc1ccc(O)cc1 [Compound 7] | 300 | 190 | 
8 |  | O=[N+]([O-])c1cc(N=Nc2cccc(C(F)(F)F)c2)ccc1O [Compound 8, 4-[-2-[3-(trifluoromethyl)phenyl]diazenyl]-2-nitrophenol] | > 2000 | 103 | 
9 |  | O=C(O)c1cc(N=Nc2cccc(C(F)(F)F)c2)ccc1O [Compound 9, 5-[-2-[3-(trifluoromethyl)phenyl]diazenyl]-2-hydroxy-benzoic acid] | 148 | 193 | 
10 |  | O=Cc1cc(/N=N/c2cccc(C(F)(F)F)c2)ccc1O [Compound 10, 5-[(E)-2-[3-(trifluoromethyl)phenyl]diazenyl]-2-hydroxy-benzaldehyde] | 82 | 34 | 
11 | 50 | Oc1ccc(N=Nc2cccc(Cl)c2)cc1 [Compound 11, 4-[-2-[3-(chloro)phenyl]diazenyl]phenol] |  |  | 
12 | 45 | O=[N+]([O-])c1cccc(N=Nc2ccc(O)cc2)c1 [Compound 12, 4-[-2-[3-(nitro)phenyl]diazenyl]phenol] |  |  | 
13 | 38 | Oc1ccc(N=Nc2cccc(C(F)(F)F)c2F)cc1 [Compound 13, 4-[-2-[2-fluoro-3-(trifluoromethyl)phenyl]diazenyl]phenol] |  |  | 
14 | 42 | Oc1ccc(N=Nc2ccc(F)c(C(F)(F)F)c2)cc1 [Compound 14] |  |  | 
15 | 39 | Oc1ccc(N=Nc2cc(C(F)(F)F)ccc2F)cc1 [Compound 15, 4-[-2-[6-fluoro-3-(trifluoromethyl)phenyl]diazenyl]phenol] |  |  | 
16 | 28 | Oc1ccc(N=Nc2cc(C(F)(F)F)cc(C(F)(F)F)c2)cc1 [Compound 16, 4-[-2-[3,5-(di-trifluoromethyl)phenyl]diazenyl]phenol] |  |  | 

Row | inhibition at 20 µM [1] [%] | Molecule | IC50 (human Pol II; [6]) [µM] | IC50 ([1]; Table 2) [µM] | further results
17 | 53 | COc1cc(N=Nc2ccc(O)cc2)cc(C(F)(F)F)c1 [Compound 17] |  |  | 
18 | 37 | N#Cc1cc(N=Nc2cccc(C(F)(F)F)c2)ccc1O [Compound 18, 4-[-2-[3-(trifluoromethyl)phenyl]diazenyl]-2-cyano-phenol] |  |  | 
19 | 33 | OCc1cc(N=Nc2cccc(C(F)(F)F)c2)ccc1O [Compound 19, 4-[-2-[3-(tnfluoromethyl)phenyl]diazenyl]-2-(hydroxymethyl)-phenol] |  |  | 
20 | 28 | N#Cc1cc(O)ccc1N=Nc1cccc(C(F)(F)F)c1 [Compound 20, 4-[-2-[3-(trifluoromethyl)phenyl]diazenyl]-3-cyano-phenol] |  |  | 
21 | 39 | OCc1cc(O)ccc1N=Nc1cccc(C(F)(F)F)c1 [Compound 21, 4-[-2-[3-(trifluoromethyl)phenyl]diazenyl]-3-(hydroxymethyl)-phenol] |  |  | 
22 | 42 | Cc1cc(O)ccc1N=Nc1cccc(C(F)(F)F)c1 [Compound 22, 4[-2-[3-(trifluoromethyl)phenyl]diazenyl]-3-methyl-phenol] |  |  | 
23 | 37 | O=[N+]([O-])c1cc(O)ccc1N=Nc1cccc(C(F)(F)F)c1 [Compound 23, 4-[-2-[3-(trifluoromethyl]phenyl)diazenyl]-3-nitro-phenol] |  |  | 
24 |  | COc1ccc(C=Cc2cccc(C(F)(F)F)c2)cc1 [Compound 24, 4-[-2-[3-(trifluoromethyl)-phenyl]ethenyl]-anisole] | > 2000 | > 2000 | 
25 |  | COCOc1ccc(C=Cc2cccc(C(F)(F)F)c2)cc1 [Compound 25, 4-[-2-[3-(trifluorometbyl)phenyl]ethenyl]-methoxymethoxyl phenyl] | > 2000 | > 2000 | 
26 |  | Oc1ccc(C=Cc2cccc(C(F)(F)F)c2)cc1Br [Compound 26, 4-[-2-[3-(trifluoromethyl)phenyl]ethenyl]-2-bromo-phenol] | 84 | 42 | 
27 |  | OB(O)c1cc(C=Cc2cccc(C(F)(F)F)c2)ccc1O [Compound 27] | 136 | 58 | 
28 |  | O=C(Nc1cccc(C(F)(F)F)c1)c1ccc(OCc2ccccc2)cc1 [Compound 29, 4-benzoxy-N-[3-(trifluoromethyl)phenyl]benzamide] | > 2000 | > 2000 | 
29 |  | O=C(Nc1cccc(C(F)(F)F)c1)c1ccc(O)cc1 [Compound 30, 4-hydroxy-N-[3-(trifnuoromethyl)phenyl]benzamide] |  |  | IC50 (human Pol II; [7]): 82 µM; IC50 ([1]; Table 1): 27 µM
30 |  | O=C(O)CN(CCN(CC(=O)O)CC(=O)O)CC(=O)O [EDTA, reference compound] |  |  | inhibition at 10 µM ([1]; 1 h, read-out: inhibition of transcription): ≥ 90%
31 |  | C[C@@H]1[C@H](O)[C@@H](C)/C=C/C=C/C=C/C=C/C=C/C=C/C=C/[C@H](O[C@@H]2O[C@H](C)[C@@H](O)[C@H](N)[C@@H]2O)C[C@@H]2O[C@](O)(C[C@@H](O)C[C@@H](O)[C@H](O)CC[C@@H](O)C[C@@H](O)CC(=O)O[C@H]1C)C[C@H](O)[C@H]2C(=O)O [amphotericin B, reference compound] |  |  | exposure time after which no CFUs are recoverable (C. albicans): ~30 min; colony forming units after exposure (C. albicans; [9]): no colony forming units are detected; exposure time after which no CFUs are recoverable (S. cerevisiae): ~30 min; colony forming units after exposure (S. cerevisiae; [9]): no colony forming units are detected
32 |  | OC(Cn1cncn1)(Cn1cncn1)c1ccc(F)cc1F [fluconazole, reference compound] |  |  | recoverable colonies from the kidneys of treated animals ([2]; systemic candidiasis, mice): reduced
